ChEMBL document CHEMBL1201862, “PubChem BioAssay data set” (2004)
Activity calls are given as the source filed them.

Experiments:
[1] = M. tuberculosis H37Rv growth inhibitors, H37Rv strain (AID 1626); format: functional
[2] = target: T1, Microphthalmia-associated transcription factor (Homo sapiens, UniProt O75030); assay: TRPM1 promoter luciferase signal decrease, dose response, MITF inhibitor project, cell-based, SK-MEL-5, cherry-picked, set 3 (AID 493073); format: functional
T1 sequence (O75030 whole entry): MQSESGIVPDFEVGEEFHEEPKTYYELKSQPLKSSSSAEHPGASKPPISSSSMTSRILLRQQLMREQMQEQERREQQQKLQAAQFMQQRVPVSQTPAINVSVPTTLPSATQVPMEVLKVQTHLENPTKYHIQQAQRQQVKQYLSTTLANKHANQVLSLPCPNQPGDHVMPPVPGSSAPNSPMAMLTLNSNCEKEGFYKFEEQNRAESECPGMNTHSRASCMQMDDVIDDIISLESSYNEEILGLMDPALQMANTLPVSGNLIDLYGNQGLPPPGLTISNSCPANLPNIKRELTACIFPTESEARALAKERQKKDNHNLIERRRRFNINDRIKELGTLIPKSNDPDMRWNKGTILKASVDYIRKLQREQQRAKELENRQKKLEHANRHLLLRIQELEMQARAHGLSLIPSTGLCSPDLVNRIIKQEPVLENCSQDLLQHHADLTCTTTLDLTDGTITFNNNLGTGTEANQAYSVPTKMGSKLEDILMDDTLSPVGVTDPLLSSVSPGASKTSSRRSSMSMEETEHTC

[3] = inhibitors of intracellular T. cruzi replication, confirmation, NIH3T3 host cells, beta-gal luminescence (AID 2044); format: functional, cell-based;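 also: intracellular parasites grown in NIH/3T3 mouse fibroblasts as host cells; luminescent beta-galactosidase reporter signal from transgenic T. cruzi replicating inside host cells; inhibitors lower the luminescence signal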
[4] = target: T2, Short transient receptor potential channel 4 (Mus musculus, UniProt Q9QUQ5); assay: mouse TRPC4 channel inhibitors, dose response, cell-based, HEK293 TRPC4/mu-opioid, Fluo-4 calcium (AID 434942); format: functional;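 also: potency of inhibitors blocking the TRPC4 calcium response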
T2 sequence (Q9QUQ5 whole entry): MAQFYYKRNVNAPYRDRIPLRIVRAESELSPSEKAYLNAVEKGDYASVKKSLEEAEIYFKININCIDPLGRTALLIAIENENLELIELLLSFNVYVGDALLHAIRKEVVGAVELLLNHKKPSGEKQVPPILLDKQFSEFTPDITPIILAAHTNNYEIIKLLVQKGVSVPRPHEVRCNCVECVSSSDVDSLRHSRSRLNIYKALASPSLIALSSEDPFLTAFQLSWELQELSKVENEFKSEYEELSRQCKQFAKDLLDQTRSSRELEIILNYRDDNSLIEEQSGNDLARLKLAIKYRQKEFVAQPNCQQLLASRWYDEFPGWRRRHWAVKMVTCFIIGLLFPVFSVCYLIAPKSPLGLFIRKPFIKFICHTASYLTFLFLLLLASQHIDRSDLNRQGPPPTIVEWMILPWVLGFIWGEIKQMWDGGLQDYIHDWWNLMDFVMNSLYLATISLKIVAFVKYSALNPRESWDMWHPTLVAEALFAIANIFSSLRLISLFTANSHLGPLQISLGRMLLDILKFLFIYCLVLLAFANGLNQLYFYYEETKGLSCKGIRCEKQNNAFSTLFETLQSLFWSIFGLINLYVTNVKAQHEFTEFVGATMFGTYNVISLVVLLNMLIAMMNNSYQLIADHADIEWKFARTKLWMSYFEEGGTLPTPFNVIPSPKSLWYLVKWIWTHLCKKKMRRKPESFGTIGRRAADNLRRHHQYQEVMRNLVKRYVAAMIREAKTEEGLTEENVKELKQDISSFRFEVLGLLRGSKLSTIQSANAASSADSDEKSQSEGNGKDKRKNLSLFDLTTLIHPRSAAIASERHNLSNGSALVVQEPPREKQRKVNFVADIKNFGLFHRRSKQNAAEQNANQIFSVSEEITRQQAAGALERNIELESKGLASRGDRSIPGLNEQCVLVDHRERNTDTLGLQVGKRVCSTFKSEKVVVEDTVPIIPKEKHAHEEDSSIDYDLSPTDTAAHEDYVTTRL

[5] = cytotoxicity toward NIH3T3 fibroblasts, dose response, counter-screen, cell-based, ATP luminescence, mouse fibroblasts (AID 2010); format: functional;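 also: cells exposed to compound for about 90 hours before reading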
[6] = target: Protein-tyrosine kinase 2-beta (Homo sapiens, UniProt Q14289);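 also: potency of inhibitors of PYK2 kinase phosphorylation of poly-GT substrate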
[7] = cytotoxicity in HPDE-C7 cells, cell-based, fluorescence, HTS (AID 430); format: functional; details: Homo sapiens
[8] = cytotoxicity in KRAS-transformed pancreatic duct cells, primary screen, cell-based, fluorescence, HTS (AID 431); format: functional; details: Homo sapiens;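 also: cell line used: HPDE-C7K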
[9] = NIH-3T3 fibroblast cytotoxicity, dose response, cytotoxicity control, cell-based, fluorescence, Alamar Blue, secondary assay (AID 2327); format: functional;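 also: NIH-3T3 mouse fibroblasts cultured with fluconazole at 8 µg/mL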
[10] = target: T3, Serine/threonine-protein phosphatase (Candida dubliniensis (strain CD36 / CBS 7987 / NCPF 3949 / NRRLY-17841) (Yeast), UniProt B9W6M3); assay: calcineurin pathway inhibitors in yeast reporter, dose response, S. cerevisiae, CDRE-lacZ, luminescence, secondary (AID 2388); format: functional, cell-based;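 also: yeast reporter cells carrying a calcineurin-responsive lacZ construct stimulated with calcium chloride; luminescent beta-galactosidase reporter signal in whole cells rather than isolated phosphatase activity; potency for inhibition where a drop in reporter signal means calcineurin blockade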
T3 sequence (B9W6M3 whole entry): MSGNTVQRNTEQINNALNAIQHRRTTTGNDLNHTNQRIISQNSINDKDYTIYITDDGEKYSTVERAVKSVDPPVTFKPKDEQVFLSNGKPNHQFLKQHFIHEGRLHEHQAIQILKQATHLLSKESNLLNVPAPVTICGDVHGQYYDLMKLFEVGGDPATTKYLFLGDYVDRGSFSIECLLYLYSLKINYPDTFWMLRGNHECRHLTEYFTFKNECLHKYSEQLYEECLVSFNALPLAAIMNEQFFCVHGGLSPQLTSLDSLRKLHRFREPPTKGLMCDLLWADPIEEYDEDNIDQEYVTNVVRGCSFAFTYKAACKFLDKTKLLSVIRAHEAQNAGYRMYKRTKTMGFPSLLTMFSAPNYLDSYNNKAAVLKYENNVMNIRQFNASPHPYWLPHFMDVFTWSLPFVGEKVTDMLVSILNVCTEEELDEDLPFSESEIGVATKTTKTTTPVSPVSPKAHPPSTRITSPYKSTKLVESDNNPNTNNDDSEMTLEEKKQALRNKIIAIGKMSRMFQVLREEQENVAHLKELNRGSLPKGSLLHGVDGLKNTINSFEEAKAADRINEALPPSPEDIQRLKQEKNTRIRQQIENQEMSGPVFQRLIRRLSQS

[11] = HEK293T cytotoxicity, dose response, cytotoxicity control for miR-122 modulator project, cell-based, inhibitor set, cherry-pick, set 2 (AID 720697); format: functional
[12] = target: ATP-dependent molecular chaperone HSP82 (Candida albicans (strain WO-1) (Yeast), UniProt C4YTQ8); assay: loss of DOC-induced GRE-beta-galactosidase reporter signal, dose response, Hsp90 inhibitor project, S. cerevisiae, luminescence (AID 2400); format: functional, cell-based;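 also: beta-galactosidase luminescence from glucocorticoid response element reporter as proxy for Hsp90 function; inhibitor potency where signal loss means Hsp90 inhibition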
[13] = C. albicans growth with fluconazole, confirmation, fluorescence, retest (AID 2467); format: functional, cell-based
INS1 = assay: beta cell apoptosis inhibitors, cytokine rescue, dose response, luminescence, retest (AID 449756); format: functional, cell-based; details: Rattus norvegicus;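 also: cell death triggered by IL-1 beta plus TNF-alpha plus IFN-gamma mixture; protective hits raise ATP signal compared with cytokine alone wells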
[14] = HEK293T cytotoxicity, dose response, cytotoxicity control for miR-122 modulator project, cell-based, activator set, cherry-pick (AID 720690); format: functional;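 also: HEK293T human cells scored for general mammalian cytotoxicity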
[15] = target: T4, Rac GTPase-activating protein 1 (Homo sapiens, UniProt Q9H0H5); assay: MgcRacGAP GTPase-activating activity inhibitors, confirmation, biochemical, ADP Hunter fluorescence, primary and confirmatory (AID 624330); format: functional
T4 sequence (Q9H0H5 whole entry): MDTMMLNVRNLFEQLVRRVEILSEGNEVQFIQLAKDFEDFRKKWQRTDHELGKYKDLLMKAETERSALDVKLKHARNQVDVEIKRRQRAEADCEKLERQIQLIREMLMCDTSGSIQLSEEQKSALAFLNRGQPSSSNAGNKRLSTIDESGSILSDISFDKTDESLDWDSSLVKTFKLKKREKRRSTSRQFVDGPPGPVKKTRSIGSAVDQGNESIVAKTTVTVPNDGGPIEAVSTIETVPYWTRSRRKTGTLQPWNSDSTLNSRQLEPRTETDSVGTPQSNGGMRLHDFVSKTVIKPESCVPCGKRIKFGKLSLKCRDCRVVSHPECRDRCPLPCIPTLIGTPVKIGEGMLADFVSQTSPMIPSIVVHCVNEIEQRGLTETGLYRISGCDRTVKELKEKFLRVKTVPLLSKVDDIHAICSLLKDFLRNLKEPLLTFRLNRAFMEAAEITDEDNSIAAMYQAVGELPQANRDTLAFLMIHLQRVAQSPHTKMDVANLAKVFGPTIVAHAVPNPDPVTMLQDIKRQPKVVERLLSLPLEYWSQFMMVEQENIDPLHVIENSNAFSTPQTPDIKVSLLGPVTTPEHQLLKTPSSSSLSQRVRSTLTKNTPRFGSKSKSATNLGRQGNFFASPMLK

Estrogen receptor beta = Estrogen receptor beta (Homo sapiens, UniProt Q92731); assay: ERβ–SRC-3 coactivator interaction inhibitors, confirmation, orthogonal assay, biochemical, ELISA, streptavidin-HRP readout (AID 1060)
Nonstructural protein 1 = Nonstructural protein 1 (Influenza A virus, UniProt Q194T2); format: functional, Influenza A virus (A/California/07/2009(H1N1))
[16] = Luminescence Cell-Based Dose Retest to Confirm Inhibitors of Cancer Stem Cells. [Related pubchem assays (depositor defined):AID2717, AID2721]; format: functional, Homo sapiens; details: Homo sapiens
[17] = target: Voltage-gated inwardly rectifying potassium channel KCNH2 (Homo sapiens, UniProt Q12809); assay: hERG protection from proarrhythmic block, potency, dose response, cell-based, thallium flux (AID 2121); format: ADME
Protein skinhead-1 = target: T5, Protein skinhead-1 (Caenorhabditis elegans, UniProt P34707); format: functional
T5 sequence (P34707 whole entry): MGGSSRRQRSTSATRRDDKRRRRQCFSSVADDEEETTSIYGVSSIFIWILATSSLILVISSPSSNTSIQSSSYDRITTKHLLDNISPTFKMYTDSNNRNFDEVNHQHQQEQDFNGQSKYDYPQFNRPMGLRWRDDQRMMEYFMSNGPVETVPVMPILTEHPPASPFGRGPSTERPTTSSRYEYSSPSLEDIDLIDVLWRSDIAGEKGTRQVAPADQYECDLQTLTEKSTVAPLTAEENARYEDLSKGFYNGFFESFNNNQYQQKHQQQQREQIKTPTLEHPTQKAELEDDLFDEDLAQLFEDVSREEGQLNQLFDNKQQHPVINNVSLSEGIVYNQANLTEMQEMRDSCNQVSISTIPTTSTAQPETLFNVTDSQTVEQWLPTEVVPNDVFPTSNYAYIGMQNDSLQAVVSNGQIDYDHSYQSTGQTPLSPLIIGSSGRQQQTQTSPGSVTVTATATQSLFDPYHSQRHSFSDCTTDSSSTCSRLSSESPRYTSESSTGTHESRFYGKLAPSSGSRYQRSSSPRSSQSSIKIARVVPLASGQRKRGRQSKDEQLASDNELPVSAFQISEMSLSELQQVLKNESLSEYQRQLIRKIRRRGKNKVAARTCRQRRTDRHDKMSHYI

[18] = target: T6, Calpain-2 catalytic subunit (Sus scrofa, UniProt P43367); assay: pig calpain II inhibitor potency, dose response, biochemical, fluorogenic peptide substrate (AID 1420); format: functional
T6 sequence (P43367 whole entry): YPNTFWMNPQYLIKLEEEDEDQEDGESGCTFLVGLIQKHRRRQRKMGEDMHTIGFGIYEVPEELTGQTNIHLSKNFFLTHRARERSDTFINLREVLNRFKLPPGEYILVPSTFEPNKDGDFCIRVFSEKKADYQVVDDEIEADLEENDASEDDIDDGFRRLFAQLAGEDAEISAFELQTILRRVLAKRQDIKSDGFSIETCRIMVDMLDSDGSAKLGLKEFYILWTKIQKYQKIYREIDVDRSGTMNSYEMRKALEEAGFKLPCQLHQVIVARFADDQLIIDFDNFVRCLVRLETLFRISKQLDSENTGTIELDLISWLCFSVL

Chain of Protein-tyrosine kinase 2-beta (Q14289 whole entry): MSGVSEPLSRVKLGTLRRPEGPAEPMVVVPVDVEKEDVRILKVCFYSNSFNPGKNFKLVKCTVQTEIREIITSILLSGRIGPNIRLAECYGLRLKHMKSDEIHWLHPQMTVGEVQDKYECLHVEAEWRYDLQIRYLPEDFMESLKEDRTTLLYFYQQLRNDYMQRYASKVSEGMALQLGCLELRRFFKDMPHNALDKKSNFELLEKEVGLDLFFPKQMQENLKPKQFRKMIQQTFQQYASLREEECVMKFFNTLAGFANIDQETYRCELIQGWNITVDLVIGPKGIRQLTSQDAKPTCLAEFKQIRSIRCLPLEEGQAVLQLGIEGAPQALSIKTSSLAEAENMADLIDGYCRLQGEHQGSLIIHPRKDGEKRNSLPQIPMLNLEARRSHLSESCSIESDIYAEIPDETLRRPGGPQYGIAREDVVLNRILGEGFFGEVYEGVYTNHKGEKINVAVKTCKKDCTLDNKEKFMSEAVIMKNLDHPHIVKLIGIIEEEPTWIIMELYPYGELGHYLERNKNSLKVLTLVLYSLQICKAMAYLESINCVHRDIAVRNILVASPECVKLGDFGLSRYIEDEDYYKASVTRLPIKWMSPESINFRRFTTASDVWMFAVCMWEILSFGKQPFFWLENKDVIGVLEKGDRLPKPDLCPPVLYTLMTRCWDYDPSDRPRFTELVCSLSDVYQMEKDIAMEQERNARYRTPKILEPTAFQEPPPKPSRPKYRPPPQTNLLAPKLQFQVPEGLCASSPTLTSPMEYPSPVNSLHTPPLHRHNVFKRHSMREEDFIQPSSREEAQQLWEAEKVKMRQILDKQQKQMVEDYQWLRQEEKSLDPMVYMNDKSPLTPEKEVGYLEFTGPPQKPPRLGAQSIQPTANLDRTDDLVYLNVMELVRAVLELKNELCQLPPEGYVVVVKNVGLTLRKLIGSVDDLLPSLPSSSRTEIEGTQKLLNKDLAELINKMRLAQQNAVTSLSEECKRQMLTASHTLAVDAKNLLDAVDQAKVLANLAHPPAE
Chain of Voltage-gated inwardly rectifying potassium channel KCNH2 (Q12809 whole entry): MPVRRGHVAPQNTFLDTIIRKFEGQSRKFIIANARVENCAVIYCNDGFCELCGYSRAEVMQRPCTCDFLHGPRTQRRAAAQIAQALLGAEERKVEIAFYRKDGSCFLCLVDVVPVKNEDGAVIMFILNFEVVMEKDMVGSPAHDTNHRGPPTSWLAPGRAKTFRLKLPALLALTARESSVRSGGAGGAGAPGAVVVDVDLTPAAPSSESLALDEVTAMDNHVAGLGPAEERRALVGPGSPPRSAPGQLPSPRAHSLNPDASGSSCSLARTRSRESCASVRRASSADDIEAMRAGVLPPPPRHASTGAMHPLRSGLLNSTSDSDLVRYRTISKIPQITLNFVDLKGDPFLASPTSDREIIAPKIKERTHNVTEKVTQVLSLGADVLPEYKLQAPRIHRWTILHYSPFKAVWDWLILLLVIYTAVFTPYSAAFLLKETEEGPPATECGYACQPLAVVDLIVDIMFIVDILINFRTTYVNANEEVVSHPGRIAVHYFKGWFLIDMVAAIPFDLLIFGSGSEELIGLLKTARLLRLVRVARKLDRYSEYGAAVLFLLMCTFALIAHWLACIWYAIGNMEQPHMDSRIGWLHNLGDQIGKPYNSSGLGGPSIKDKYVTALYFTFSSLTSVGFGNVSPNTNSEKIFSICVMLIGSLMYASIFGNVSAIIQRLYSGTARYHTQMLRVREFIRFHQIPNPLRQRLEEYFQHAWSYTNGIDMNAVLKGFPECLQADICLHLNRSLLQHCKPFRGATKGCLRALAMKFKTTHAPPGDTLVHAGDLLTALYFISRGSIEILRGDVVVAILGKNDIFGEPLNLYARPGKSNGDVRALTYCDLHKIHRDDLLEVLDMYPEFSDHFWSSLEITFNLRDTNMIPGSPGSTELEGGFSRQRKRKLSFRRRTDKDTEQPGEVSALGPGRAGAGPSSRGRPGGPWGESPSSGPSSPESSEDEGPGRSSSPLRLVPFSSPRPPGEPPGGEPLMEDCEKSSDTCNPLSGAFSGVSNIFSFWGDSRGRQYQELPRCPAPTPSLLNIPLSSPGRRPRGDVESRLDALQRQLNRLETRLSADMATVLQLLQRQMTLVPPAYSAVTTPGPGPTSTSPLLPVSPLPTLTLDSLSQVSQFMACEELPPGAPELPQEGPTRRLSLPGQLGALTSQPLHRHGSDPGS
Chain of Estrogen receptor beta (Q92731 whole entry): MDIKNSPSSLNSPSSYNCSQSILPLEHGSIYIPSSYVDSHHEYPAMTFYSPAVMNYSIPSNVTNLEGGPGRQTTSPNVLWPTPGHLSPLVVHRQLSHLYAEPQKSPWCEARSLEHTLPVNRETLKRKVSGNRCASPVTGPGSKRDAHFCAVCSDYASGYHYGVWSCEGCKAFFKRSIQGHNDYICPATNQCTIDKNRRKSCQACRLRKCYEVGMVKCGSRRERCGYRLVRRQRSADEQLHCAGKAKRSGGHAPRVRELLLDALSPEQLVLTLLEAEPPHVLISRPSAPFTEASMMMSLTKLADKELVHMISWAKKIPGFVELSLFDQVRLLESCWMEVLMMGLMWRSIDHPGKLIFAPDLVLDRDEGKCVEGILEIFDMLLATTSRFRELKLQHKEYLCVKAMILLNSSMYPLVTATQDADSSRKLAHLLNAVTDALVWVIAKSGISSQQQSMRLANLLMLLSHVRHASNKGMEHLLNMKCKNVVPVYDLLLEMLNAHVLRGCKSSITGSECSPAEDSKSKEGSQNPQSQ
Chain of Nonstructural protein 1 (Q194T2 whole entry): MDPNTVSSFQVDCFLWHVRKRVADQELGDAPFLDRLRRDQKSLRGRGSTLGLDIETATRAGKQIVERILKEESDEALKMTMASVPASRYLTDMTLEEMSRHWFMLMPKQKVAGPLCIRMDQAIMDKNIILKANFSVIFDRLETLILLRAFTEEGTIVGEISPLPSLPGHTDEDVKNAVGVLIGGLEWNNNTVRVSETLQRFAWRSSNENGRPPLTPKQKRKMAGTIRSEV
Chain of ATP-dependent molecular chaperone HSP82 (C4YTQ8 whole entry): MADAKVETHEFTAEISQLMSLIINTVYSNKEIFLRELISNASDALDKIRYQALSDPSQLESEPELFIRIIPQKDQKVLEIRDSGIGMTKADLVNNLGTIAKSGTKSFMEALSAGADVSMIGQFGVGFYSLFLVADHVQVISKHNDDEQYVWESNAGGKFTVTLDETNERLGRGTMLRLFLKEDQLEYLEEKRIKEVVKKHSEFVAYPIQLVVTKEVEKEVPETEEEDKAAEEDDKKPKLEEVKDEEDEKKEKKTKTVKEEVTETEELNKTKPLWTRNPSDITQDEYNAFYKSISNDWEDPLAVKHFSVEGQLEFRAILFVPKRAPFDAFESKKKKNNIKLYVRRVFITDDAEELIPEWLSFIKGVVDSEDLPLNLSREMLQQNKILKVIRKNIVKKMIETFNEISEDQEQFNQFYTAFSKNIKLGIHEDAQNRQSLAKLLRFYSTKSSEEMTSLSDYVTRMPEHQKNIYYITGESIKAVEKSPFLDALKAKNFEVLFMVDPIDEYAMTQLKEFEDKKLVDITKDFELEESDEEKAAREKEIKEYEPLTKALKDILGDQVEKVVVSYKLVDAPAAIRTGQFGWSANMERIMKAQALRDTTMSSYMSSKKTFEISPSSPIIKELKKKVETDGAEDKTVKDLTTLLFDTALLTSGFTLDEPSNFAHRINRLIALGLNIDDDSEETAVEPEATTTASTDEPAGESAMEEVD

With CCOC(=O)CNC(=O)CSc1ncnc2c1nnn2-c1ccc(F)cc1 the IC50 [1] was > 100 µM (active).
For Cc1ccc(-c2c[n+](Cc3cccc(Cl)c3)c3n2CCC3)cc1, the AC50 [2] was 12.2 µM (active), the EC50 [3] was < 0.1 µM (active) and the EC50 (cells) was 0.025 µM (active). The EC50 [4] was 1.33 µM (active) and the EC50 [5] was > 30 µM (not active).
With N#C/C(=C/c1ccc(-c2ccc(Br)cc2)o1)C(=O)NC1CCCCC1 the IC50 [1] was > 100 µM (active).
For Cc1nn2c(c1-c1ccccc1)N=C1CCCC(O)=C1C2c1ccccc1 (centres undefined), the IC50 [6] was > 69.5 µM (not active).
For CN(C)CCN(C(=O)c1cc(Cl)sc1Cl)c1nc2ccc(F)cc2s1, the EC50 [3] was < 0.1 µM (active), the EC50 (cells) was 0.211 µM (active) and the EC50 [5] was > 60 µM (not active).
For CCOC(=O)C1CCN(Cc2c[nH]nc2-c2ccc(C)cc2)CC1, the EC50 [7] was > 20 µM (not active) and the EC50 [8] was > 20 µM (not active).
With O=C(Oc1c(CN2CCOCC2)cc(Cl)c2cccnc12)c1ccc(F)cc1 the EC50 [9] was > 160 µM (inconclusive), the EC50 [10] was > 180 µM (inactive) and the EC50 [3] was 4.69 µM (active). The AC50 [11] was 5.7 µM (active), the EC50 [7] was 4.28 µM (active) and the EC50 [12] was > 160 µM (inactive). For the same compound, the EC50 [8] was 12.7 µM (active), the EC50 [13] was 1.54 µM (active) and the EC50 [5] was > 60 µM (not active). The AC50 (INS1) was 3.99 µM (active) and the AC50 [14] was 9.1 µM (active).
With Cc1ccccc1-c1ccc(Nc2ccc(N3CCOCC3)cc2)nn1 the EC50 [3] was 1.42 µM (active), the IC50 [6] was 14.5 µM (not active) and the IC50 [15] was 79.6 µM (active). The EC50 [5] was > 60 µM (not active) and the IC50 (Estrogen receptor beta) was < 0.023 µM (not active).
In the case of Cc1ccc(C(C#N)c2ccc3c(C(F)(F)F)cc(C(F)(F)F)nc3n2)cc1 (centres undefined), the IC50 (Nonstructural protein 1) is reported as 24.4 µM (active), the AC50 [16] is reported as 1.78 µM (active) and the EC50 [17] is reported as 6 µM (active). The IC50 (Protein skinhead-1) was > 100 µM (inactive) and the IC50 [18] was > 50 µM (not active).
